Data as given in the NIST ThermoML archive (doi:10.1016/j.jct.2008.05.014).

Legend:
[1] = refractive index (Na D-line) (dimensionless); conditions: 298.15 K; 101.33 kPa; Liquid; Standard Abbe refractometry
[2] = Liquid; for speed of sound: Pulse-echo method
[3] = xn = mol fraction of the nth substance listed; conditions: Liquid, x1 = 1; for speed of sound: Pulse-echo method

CCCCCCC [heptane]
Conditions | refractive index
[1] | 1.3853

[2]
Conditions | mass density [kg/m3] | speed of sound [m/s]
292.83 K, 101 kPa | – | 1153.2
292.88 K, 45590 kPa | – | 1417.7
292.88 K, 60790 kPa | – | 1485.5
292.88 K, 75990 kPa | – | 1547.2
292.88 K, 91180 kPa | – | 1605
292.88 K, 101320 kPa | – | 1641.2
292.89 K, 15200 kPa | – | 1257
292.89 K, 30390 kPa | – | 1342.4
293.15 K, 101 kPa | 683.803 | –
298.12 K, 101 kPa | – | 1130.1
298.15 K, 101 kPa | 679.548 | –
298.15 K, 15200 kPa | – | 1236.7
298.15 K, 30390 kPa | – | 1323.7
298.15 K, 45590 kPa | – | 1400.1
298.15 K, 60790 kPa | – | 1469.1
298.15 K, 91180 kPa | – | 1589.7
298.15 K, 101320 kPa | – | 1626.4
298.16 K, 75990 kPa | – | 1531.6
303.1 K, 101 kPa | – | 1108.5
303.13 K, 60790 kPa | – | 1453.5
303.13 K, 91180 kPa | – | 1575.6
303.13 K, 101320 kPa | – | 1612.6
303.14 K, 30390 kPa | – | 1306.4
303.14 K, 45590 kPa | – | 1383.7
303.14 K, 75990 kPa | – | 1517
303.15 K, 101 kPa | 675.293 | –
303.15 K, 15200 kPa | – | 1217.8
308.08 K, 101 kPa | – | 1087
308.12 K, 45590 kPa | – | 1367.9
308.12 K, 75990 kPa | – | 1502.7
308.12 K, 91180 kPa | – | 1561.5
308.12 K, 101320 kPa | – | 1599.1
308.13 K, 15200 kPa | – | 1199.2
308.13 K, 30390 kPa | – | 1289.3
308.13 K, 60790 kPa | – | 1438.4
308.15 K, 101 kPa | 671.015 | –
313.06 K, 101 kPa | – | 1065.6
313.1 K, 30390 kPa | – | 1272.5
313.1 K, 45590 kPa | – | 1352.5
313.1 K, 60790 kPa | – | 1423.8
313.1 K, 75990 kPa | – | 1488.7
313.1 K, 91180 kPa | – | 1548.1
313.1 K, 101320 kPa | – | 1585.7
313.11 K, 15200 kPa | – | 1180.7
313.15 K, 101 kPa | 666.684 | –
318.15 K, 101 kPa | 662.324 | –
318.28 K, 15200 kPa | – | 1161.8
318.28 K, 30390 kPa | – | 1255.3
318.28 K, 45590 kPa | – | 1336.5
318.28 K, 60790 kPa | – | 1408.6
318.28 K, 75990 kPa | – | 1474.4
318.28 K, 91180 kPa | – | 1534.3
318.28 K, 101320 kPa | – | 1572.3
318.35 K, 101 kPa | – | 1043

CCCCCCC [heptane] + CCCCCCCCCCCC
[3]
Conditions | mass density [kg/m3] | speed of sound [m/s]
292.83 K, 101 kPa | – | 1153.2
292.88 K, 45590 kPa | – | 1417.7
292.88 K, 60790 kPa | – | 1485.5
292.88 K, 75990 kPa | – | 1547.2
292.88 K, 91180 kPa | – | 1605
292.88 K, 101320 kPa | – | 1641.2
292.89 K, 15200 kPa | – | 1257
292.89 K, 30390 kPa | – | 1342.4
293.15 K, 101 kPa | 683.803 | –
298.12 K, 101 kPa | – | 1130.1
298.15 K, 101 kPa | 679.548 | –
298.15 K, 15200 kPa | – | 1236.7
298.15 K, 30390 kPa | – | 1323.7
298.15 K, 45590 kPa | – | 1400.1
298.15 K, 60790 kPa | – | 1469.1
298.15 K, 91180 kPa | – | 1589.7
298.15 K, 101320 kPa | – | 1626.4
298.16 K, 75990 kPa | – | 1531.6
303.1 K, 101 kPa | – | 1108.5
303.13 K, 60790 kPa | – | 1453.5
303.13 K, 91180 kPa | – | 1575.6
303.13 K, 101320 kPa | – | 1612.6
303.14 K, 30390 kPa | – | 1306.4
303.14 K, 45590 kPa | – | 1383.7
303.14 K, 75990 kPa | – | 1517
303.15 K, 101 kPa | 675.293 | –
303.15 K, 15200 kPa | – | 1217.8
308.08 K, 101 kPa | – | 1087
308.12 K, 45590 kPa | – | 1367.9
308.12 K, 75990 kPa | – | 1502.7
308.12 K, 91180 kPa | – | 1561.5
308.12 K, 101320 kPa | – | 1599.1
308.13 K, 15200 kPa | – | 1199.2
308.13 K, 30390 kPa | – | 1289.3
308.13 K, 60790 kPa | – | 1438.4
308.15 K, 101 kPa | 671.015 | –
313.06 K, 101 kPa | – | 1065.6
313.1 K, 30390 kPa | – | 1272.5
313.1 K, 45590 kPa | – | 1352.5
313.1 K, 60790 kPa | – | 1423.8
313.1 K, 75990 kPa | – | 1488.7
313.1 K, 91180 kPa | – | 1548.1
313.1 K, 101320 kPa | – | 1585.7
313.11 K, 15200 kPa | – | 1180.7
313.15 K, 101 kPa | 666.684 | –
318.15 K, 101 kPa | 662.324 | –
318.28 K, 15200 kPa | – | 1161.8
318.28 K, 30390 kPa | – | 1255.3
318.28 K, 45590 kPa | – | 1336.5
318.28 K, 60790 kPa | – | 1408.6
318.28 K, 75990 kPa | – | 1474.4
318.28 K, 91180 kPa | – | 1534.3
318.28 K, 101320 kPa | – | 1572.3
318.35 K, 101 kPa | – | 1043

CCCCCCCCCCCC [dodecane]
Conditions | refractive index
[1] | 1.4197

[2]
Conditions | mass density [kg/m3] | speed of sound [m/s]
292.87 K, 15200 kPa | – | 1384.9
292.87 K, 30390 kPa | – | 1457.9
292.87 K, 45590 kPa | – | 1524.1
292.87 K, 60790 kPa | – | 1584.5
292.87 K, 75990 kPa | – | 1640.7
292.87 K, 91180 kPa | – | 1692.8
292.87 K, 101320 kPa | – | 1725.8
292.89 K, 101 kPa | – | 1299.5
293.15 K, 101 kPa | 748.921 | –
298.15 K, 101 kPa | 745.269 | –
298.16 K, 101 kPa | – | 1278.9
298.16 K, 15200 kPa | – | 1365.9
298.16 K, 30390 kPa | – | 1440
298.16 K, 45580 kPa | – | 1507
298.16 K, 60790 kPa | – | 1568
298.16 K, 75990 kPa | – | 1625.2
298.16 K, 91180 kPa | – | 1677.7
298.16 K, 101320 kPa | – | 1711.1
303.14 K, 30390 kPa | – | 1423.8
303.14 K, 45590 kPa | – | 1491.4
303.14 K, 60790 kPa | – | 1553.1
303.14 K, 75990 kPa | – | 1610.9
303.14 K, 91180 kPa | – | 1664.1
303.14 K, 101320 kPa | – | 1697.4
303.15 K, 101 kPa | 741.636 | 1259.3
303.15 K, 15200 kPa | – | 1348.5
308.12 K, 101 kPa | – | 1240.2
308.13 K, 75990 kPa | – | 1596.8
308.13 K, 91180 kPa | – | 1650.9
308.14 K, 15200 kPa | – | 1331
308.14 K, 30390 kPa | – | 1407.6
308.14 K, 45590 kPa | – | 1476.3
308.14 K, 60790 kPa | – | 1538.6
308.15 K, 101 kPa | 738.031 | –
313.1 K, 101 kPa | – | 1221
313.15 K, 101 kPa | 734.369 | –
313.21 K, 15200 kPa | – | 1313.4
313.21 K, 30390 kPa | – | 1391.1
313.21 K, 45590 kPa | – | 1460.8
313.21 K, 60790 kPa | – | 1524.1
313.21 K, 75990 kPa | – | 1582.5
313.21 K, 91180 kPa | – | 1637.3
313.21 K, 101320 kPa | – | 1671.3
318.15 K, 101 kPa | 730.715 | –
318.29 K, 15200 kPa | – | 1296.2
318.29 K, 30390 kPa | – | 1375
318.29 K, 45590 kPa | – | 1445.5
318.29 K, 60790 kPa | – | 1509.7
318.29 K, 91180 kPa | – | 1624.1
318.29 K, 101320 kPa | – | 1658.5
318.3 K, 75990 kPa | – | 1568.8
318.39 K, 101 kPa | – | 1200.9
